Active and inactive are the calls of the source.
Assays:
[1] = target: Mitogen-activated protein kinase kinase kinase kinase 4 (Homo sapiens, UniProt O95819)
[2] = target: T1, ADP/ATP translocase 3 (Homo sapiens, UniProt P12236)
T1 sequence (P12236 whole entry): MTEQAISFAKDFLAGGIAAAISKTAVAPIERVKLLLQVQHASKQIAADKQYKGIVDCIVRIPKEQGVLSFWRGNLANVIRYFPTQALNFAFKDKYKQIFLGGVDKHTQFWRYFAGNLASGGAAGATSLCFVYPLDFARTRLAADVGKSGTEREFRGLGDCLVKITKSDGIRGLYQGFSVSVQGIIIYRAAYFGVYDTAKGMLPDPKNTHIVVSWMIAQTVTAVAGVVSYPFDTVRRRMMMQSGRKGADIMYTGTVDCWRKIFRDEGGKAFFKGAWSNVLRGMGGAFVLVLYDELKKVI

[3] = target: Myosin light chain kinase, smooth muscle (Homo sapiens, UniProt Q15746)
Chain of Myosin light chain kinase, smooth muscle (Q15746 whole entry): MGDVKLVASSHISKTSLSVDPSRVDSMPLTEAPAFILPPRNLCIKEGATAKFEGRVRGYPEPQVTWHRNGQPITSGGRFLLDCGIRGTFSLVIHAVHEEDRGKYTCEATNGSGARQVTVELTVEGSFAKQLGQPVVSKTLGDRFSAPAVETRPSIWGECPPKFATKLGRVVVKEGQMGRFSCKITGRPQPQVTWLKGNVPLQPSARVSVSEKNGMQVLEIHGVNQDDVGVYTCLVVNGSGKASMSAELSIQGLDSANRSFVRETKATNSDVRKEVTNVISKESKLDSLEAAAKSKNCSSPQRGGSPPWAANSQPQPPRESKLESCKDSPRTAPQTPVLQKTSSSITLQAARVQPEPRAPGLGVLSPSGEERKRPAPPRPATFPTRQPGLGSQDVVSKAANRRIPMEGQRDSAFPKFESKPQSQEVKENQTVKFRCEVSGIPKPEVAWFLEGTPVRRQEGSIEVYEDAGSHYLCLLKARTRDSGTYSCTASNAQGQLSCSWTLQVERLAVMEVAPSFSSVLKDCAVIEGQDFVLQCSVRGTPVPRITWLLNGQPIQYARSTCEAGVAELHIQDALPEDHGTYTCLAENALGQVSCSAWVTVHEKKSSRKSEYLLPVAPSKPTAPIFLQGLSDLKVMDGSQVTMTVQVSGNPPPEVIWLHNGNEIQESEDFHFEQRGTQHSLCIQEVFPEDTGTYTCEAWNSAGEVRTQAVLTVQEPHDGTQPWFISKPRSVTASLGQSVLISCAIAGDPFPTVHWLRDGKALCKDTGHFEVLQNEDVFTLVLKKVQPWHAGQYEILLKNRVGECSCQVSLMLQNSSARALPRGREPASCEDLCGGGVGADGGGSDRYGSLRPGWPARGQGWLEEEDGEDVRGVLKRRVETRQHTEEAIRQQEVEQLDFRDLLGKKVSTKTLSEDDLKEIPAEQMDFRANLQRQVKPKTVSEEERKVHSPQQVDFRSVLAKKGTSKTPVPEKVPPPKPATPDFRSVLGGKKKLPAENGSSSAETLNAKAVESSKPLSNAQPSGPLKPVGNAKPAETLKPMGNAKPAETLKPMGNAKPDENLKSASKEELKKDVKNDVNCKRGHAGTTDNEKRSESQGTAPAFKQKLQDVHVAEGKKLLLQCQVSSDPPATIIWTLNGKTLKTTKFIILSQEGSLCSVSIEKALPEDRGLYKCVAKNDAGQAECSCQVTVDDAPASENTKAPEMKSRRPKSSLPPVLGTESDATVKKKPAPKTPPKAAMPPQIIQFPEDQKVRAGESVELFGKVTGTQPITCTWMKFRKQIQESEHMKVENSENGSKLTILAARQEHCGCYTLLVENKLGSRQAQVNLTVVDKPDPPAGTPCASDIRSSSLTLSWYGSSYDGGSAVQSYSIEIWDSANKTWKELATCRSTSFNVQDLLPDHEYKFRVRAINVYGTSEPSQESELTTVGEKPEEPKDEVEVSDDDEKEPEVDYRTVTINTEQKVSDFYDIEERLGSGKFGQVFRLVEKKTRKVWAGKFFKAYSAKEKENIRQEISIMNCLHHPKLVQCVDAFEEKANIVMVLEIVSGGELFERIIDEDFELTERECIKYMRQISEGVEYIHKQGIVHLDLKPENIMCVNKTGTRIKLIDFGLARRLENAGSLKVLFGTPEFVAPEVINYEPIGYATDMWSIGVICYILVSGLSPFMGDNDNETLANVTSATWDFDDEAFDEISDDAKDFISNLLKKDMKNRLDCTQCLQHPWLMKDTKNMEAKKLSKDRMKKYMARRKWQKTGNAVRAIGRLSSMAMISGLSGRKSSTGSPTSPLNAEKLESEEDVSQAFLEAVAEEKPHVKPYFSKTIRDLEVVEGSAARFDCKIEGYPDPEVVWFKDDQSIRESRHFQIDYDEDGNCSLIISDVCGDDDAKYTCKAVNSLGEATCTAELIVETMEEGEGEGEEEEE

[4] = target: T2, Serine/threonine-protein kinase TBK1 (Homo sapiens, UniProt Q9UHD2)
T2 sequence (Q9UHD2 whole entry): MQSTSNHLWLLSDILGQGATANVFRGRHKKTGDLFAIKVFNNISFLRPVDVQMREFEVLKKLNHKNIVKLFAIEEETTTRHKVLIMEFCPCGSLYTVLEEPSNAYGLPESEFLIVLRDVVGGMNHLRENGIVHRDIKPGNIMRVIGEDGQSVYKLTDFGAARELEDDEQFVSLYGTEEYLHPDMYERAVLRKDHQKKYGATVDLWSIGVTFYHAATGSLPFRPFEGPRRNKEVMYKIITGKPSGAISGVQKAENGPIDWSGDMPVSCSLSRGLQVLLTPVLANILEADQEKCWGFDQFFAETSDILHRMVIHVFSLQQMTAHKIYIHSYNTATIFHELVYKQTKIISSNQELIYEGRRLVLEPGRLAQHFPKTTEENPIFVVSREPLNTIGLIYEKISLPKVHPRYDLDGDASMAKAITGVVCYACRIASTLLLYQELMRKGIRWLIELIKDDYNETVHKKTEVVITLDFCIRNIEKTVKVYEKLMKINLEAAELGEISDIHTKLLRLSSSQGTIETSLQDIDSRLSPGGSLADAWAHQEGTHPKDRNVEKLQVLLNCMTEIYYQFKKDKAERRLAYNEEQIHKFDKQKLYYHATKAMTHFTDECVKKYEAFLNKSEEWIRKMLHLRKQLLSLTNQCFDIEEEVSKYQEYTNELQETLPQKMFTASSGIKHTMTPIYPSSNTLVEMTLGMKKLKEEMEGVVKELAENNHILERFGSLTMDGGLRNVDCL

[5] = target: T3, Calcium/calmodulin-dependent protein kinase type IV (Homo sapiens, UniProt Q16566)
T3 sequence (Q16566 whole entry): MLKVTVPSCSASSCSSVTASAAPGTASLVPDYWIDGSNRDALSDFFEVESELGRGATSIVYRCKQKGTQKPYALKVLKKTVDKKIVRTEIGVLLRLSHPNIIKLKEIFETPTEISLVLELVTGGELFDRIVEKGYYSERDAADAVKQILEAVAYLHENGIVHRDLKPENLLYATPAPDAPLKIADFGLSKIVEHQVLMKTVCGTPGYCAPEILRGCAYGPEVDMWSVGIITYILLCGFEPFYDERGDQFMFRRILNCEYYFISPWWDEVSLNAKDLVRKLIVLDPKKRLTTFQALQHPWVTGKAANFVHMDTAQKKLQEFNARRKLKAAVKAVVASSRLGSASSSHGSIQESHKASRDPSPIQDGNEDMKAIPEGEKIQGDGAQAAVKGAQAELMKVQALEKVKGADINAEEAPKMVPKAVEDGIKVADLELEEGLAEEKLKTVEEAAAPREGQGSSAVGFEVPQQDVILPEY

[6] = target: T4, Ephrin type-B receptor 2 (Homo sapiens, UniProt P29323)
T4 sequence (P29323 whole entry): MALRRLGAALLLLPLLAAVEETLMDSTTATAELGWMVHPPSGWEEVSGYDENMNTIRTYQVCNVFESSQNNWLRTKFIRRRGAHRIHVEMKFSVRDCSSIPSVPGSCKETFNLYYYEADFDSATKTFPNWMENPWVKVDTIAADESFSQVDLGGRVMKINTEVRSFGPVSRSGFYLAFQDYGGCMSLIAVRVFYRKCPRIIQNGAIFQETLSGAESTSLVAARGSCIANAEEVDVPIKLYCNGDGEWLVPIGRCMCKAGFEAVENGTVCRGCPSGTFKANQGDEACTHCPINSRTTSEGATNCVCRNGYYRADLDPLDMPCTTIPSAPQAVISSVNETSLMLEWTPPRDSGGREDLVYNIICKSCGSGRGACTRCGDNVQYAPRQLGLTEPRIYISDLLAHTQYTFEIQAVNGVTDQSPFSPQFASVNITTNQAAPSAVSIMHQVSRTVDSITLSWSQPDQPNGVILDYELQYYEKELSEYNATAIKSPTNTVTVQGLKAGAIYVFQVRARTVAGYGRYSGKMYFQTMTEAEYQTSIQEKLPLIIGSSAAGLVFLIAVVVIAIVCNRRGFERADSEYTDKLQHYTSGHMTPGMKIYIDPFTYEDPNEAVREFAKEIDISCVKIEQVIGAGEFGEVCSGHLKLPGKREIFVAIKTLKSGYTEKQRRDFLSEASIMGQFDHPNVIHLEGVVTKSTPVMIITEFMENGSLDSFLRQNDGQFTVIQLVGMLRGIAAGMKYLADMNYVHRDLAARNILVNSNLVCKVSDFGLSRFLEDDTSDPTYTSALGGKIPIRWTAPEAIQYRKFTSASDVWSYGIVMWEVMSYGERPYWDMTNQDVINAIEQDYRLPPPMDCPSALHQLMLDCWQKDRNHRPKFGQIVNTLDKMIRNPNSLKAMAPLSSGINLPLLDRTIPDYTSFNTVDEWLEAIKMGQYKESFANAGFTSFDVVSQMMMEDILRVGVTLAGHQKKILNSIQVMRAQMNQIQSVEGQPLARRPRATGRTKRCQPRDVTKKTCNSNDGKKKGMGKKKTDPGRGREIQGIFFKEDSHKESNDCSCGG

[7] = target: T5, Cytochrome c1, heme protein, mitochondrial (Homo sapiens, UniProt P08574)
T5 sequence (P08574 whole entry): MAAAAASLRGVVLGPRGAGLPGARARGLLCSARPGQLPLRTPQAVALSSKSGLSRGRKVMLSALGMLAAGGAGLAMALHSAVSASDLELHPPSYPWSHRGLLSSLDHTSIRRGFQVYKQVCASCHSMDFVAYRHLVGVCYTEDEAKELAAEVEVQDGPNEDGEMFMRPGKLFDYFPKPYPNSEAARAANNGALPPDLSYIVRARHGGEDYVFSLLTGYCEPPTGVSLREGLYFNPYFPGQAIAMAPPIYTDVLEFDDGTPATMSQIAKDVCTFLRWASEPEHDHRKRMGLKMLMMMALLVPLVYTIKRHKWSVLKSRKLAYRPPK
Further: in the data inactive means no Kd found up to 30 µM.

Chain of Mitogen-activated protein kinase kinase kinase kinase 4 (O95819 whole entry): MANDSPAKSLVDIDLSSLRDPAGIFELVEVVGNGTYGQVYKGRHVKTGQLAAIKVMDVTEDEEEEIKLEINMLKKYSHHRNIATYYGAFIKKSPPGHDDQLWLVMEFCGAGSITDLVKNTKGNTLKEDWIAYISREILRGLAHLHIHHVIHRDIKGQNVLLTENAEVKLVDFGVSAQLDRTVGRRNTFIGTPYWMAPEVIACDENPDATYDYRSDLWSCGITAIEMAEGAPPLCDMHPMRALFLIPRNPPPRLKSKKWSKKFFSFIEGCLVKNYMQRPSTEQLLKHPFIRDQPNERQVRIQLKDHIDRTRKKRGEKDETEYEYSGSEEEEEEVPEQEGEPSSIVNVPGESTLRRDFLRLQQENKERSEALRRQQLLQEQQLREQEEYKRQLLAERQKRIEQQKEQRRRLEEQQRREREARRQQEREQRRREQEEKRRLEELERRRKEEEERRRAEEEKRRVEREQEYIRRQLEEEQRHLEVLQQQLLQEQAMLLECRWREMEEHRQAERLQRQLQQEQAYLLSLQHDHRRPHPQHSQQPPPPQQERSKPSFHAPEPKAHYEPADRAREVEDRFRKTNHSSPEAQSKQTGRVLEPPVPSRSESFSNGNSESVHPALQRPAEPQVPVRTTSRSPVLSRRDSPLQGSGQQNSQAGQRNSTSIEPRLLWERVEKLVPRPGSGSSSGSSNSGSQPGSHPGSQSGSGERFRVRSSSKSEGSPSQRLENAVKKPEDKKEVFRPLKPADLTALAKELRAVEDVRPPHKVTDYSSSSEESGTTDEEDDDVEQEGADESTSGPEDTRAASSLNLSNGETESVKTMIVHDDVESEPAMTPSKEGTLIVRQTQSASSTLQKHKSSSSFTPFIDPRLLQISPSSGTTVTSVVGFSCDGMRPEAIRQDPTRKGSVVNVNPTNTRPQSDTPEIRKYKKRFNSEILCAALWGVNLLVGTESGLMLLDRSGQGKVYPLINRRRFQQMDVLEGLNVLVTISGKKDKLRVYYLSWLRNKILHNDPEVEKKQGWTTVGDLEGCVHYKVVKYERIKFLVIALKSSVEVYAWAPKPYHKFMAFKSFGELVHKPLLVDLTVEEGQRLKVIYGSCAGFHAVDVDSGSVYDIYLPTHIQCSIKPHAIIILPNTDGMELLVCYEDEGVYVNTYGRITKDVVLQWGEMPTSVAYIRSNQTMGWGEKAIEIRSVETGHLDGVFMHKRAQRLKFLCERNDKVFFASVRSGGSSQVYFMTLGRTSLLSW

## O=c1sn(-c2cccc3ccccc23)c(=O)n1Cc1ccccc1 [TIDEGLUSIB]
[1]
  Kd: > 30 µM (inactive)
[2]
  Kd: > 30 µM (inactive)
[3]
  Kd: > 30 µM (inactive)
[4]
  Kd: > 30 µM (inactive)
[5]
  Kd: > 30 µM (inactive)
[6]
  Kd: > 30 µM (inactive)
[7]
  Kd: > 30 µM (inactive)

## Cn1cc(-c2ccc3nnc(C(F)(F)c4ccc5ncccc5c4)n3n2)cn1 [JNJ-38877605]
[1]
  Kd: > 30 µM (inactive)
[2]
  Kd: > 30 µM (inactive)
[3]
  Kd: > 30 µM (inactive)
[4]
  Kd: > 30 µM (inactive)
[5]
  Kd: > 30 µM (inactive)
[6]
  Kd: > 30 µM (inactive)
[7]
  Kd: > 30 µM (inactive)

## Cn1ncc(Cl)c1-c1cc(C(=O)N[C@H](CN)Cc2cccc(F)c2)sc1Cl [AFURESERTIB]
[1]
  Kd: > 30 µM (inactive)
[2]
  Kd: > 30 µM (inactive)
[3]
  Kd: > 30 µM (inactive)
[4]
  Kd: > 30 µM (inactive)
[5]
  Kd: > 30 µM (inactive)
[6]
  Kd: > 30 µM (inactive)
[7]
  Kd: > 30 µM (inactive)

## CNS(=O)(=O)Nc1nccc(Cc2c(C)c3ccc(Oc4ncccn4)cc3oc2=O)c1F [AVUTOMETINIB]
[1]
  Kd: > 30 µM (inactive)
[2]
  Kd: > 30 µM (inactive)
[3]
  Kd: > 30 µM (inactive)
[4]
  Kd: > 30 µM (inactive)
[5]
  Kd: > 30 µM (inactive)
[6]
  Kd: > 30 µM (inactive)
[7]
  Kd: > 30 µM (inactive)

## CN(C)C(=O)c1cc2cnc(Nc3ccc(N4CCNCC4)cn3)nc2n1C1CCCC1 [RIBOCICLIB]
[1]
  Kd: > 30 µM (inactive)
[2]
  Kd: > 30 µM (inactive)
[3]
  Kd: > 30 µM (inactive)
[4]
  Kd: > 30 µM (inactive)
[5]
  Kd: > 30 µM (inactive)
[6]
  Kd: > 30 µM (inactive)
[7]
  Kd: > 30 µM (inactive)

## CCc1cnn2c(NCc3ccc[n+]([O-])c3)cc(N3CCCC[C@H]3CCO)nc12 [DINACICLIB]
[2]
  Kd: > 30 µM (inactive)
[3]
  Kd: > 30 µM (inactive)
[5]
  Kd: > 30 µM (inactive)
[6]
  Kd: > 30 µM (inactive)
[7]
  Kd: > 30 µM (inactive)

## COc1ccc(-c2ccc3c(N4CCOC[C@@H]4C)nc(N4CCOC[C@@H]4C)nc3n2)cc1CO [AZD-8055]
[1]
  Kd: > 30 µM (inactive)
[2]
  Kd: > 30 µM (inactive)
[3]
  Kd: > 30 µM (inactive)
[4]
  Kd: > 30 µM (inactive)
[5]
  Kd: > 30 µM (inactive)
[6]
  Kd: > 30 µM (inactive)
[7]
  Kd: > 30 µM (inactive)

## COc1cc2nccc(Oc3ccc(NC(=O)Nc4cc(C)on4)c(Cl)c3)c2cc1OC [TIVOZANIB]
[1]
  Kd: > 30 µM (inactive)
[2]
  Kd: > 30 µM (inactive)
[3]
  Kd: > 30 µM (inactive)
[4]
  Kd: > 30 µM (inactive)
[5]
  Kd: > 30 µM (inactive)
[6]
  Kd: 0.448 µM (active)
[7]
  Kd: > 30 µM (inactive)

## C[C@@H](Nc1cc(F)cc(F)c1)c1cc(C(=O)N(C)C)cc2c(=O)cc(N3CCOCC3)oc12 [AZD-8186]
[1]
  Kd: > 30 µM (inactive)
[2]
  Kd: > 30 µM (inactive)
[3]
  Kd: > 30 µM (inactive)
[4]
  Kd: > 30 µM (inactive)
[5]
  Kd: > 30 µM (inactive)
[6]
  Kd: > 30 µM (inactive)
[7]
  Kd: > 30 µM (inactive)

## CNC(=O)CN1CCC(Oc2cc3c(Nc4cccc(Cl)c4F)ncnc3cc2OC)CC1 [SAPITINIB]
[1]
  Kd: > 30 µM (inactive)
[2]
  Kd: > 30 µM (inactive)
[3]
  Kd: > 30 µM (inactive)
[4]
  Kd: > 30 µM (inactive)
[5]
  Kd: > 30 µM (inactive)
[6]
  Kd: 2.28 µM
[7]
  Kd: > 30 µM (inactive)

## COC(=O)[C@@]1(O)C[C@H]2O[C@]1(C)n1c3ccccc3c3c4c(c5c6ccccc6n2c5c31)C(=O)NC4 [K-252A]
[1]
  Kd: 0.019 µM (active)
[2]
  Kd: > 30 µM (inactive)
[4]
  Kd: 1.16 µM (active)
[5]
  Kd: > 30 µM (inactive)
[6]
  Kd: > 30 µM (inactive)
[7]
  Kd: > 30 µM (inactive)

## C[C@@H](c1ccc2nccn2c1)n1nnc2ncc(-c3cnn(C)c3)nc21 [SAVOLITINIB]
[1]
  Kd: > 30 µM (inactive)
[2]
  Kd: > 30 µM (inactive)
[3]
  Kd: > 30 µM (inactive)
[4]
  Kd: > 30 µM (inactive)
[6]
  Kd: > 30 µM (inactive)
[7]
  Kd: > 30 µM (inactive)

## Cc1cn(-c2cc(NC(=O)c3ccc(C)c(Nc4nccc(-c5cccnc5)n4)c3)cc(C(F)(F)F)c2)cn1 [NILOTINIB]
[2]
  Kd: > 30 µM (inactive)
[7]
  Kd: > 30 µM (inactive)

## Cc1cc(Nc2cc(N3CCN(C)CC3)nc(/C=C/c3ccccc3)n2)n[nH]1 [ENMD-2076]
[2]
  Kd: > 30 µM (inactive)
[3]
  Kd: > 30 µM (inactive)
[5]
  Kd: > 30 µM (inactive)
[6]
  Kd: > 30 µM (inactive)
[7]
  Kd: > 30 µM (inactive)

## OCCn1cc(-c2cnc3nnn(Cc4ccc5ncccc5c4)c3n2)cn1 [PF-04217903]
[2]
  Kd: > 30 µM (inactive)
[3]
  Kd: > 30 µM (inactive)
[5]
  Kd: > 30 µM (inactive)
[6]
  Kd: > 30 µM (inactive)
[7]
  Kd: > 30 µM (inactive)

## O=C(Nc1cccc(Cl)c1)Nc1ncc(CCNc2ncnc3ccsc23)s1 [SNS-314]
[2]
  Kd: > 30 µM (inactive)
[3]
  Kd: > 30 µM (inactive)
[5]
  Kd: > 30 µM (inactive)
[6]
  Kd: > 30 µM (inactive)
[7]
  Kd: > 30 µM (inactive)

## Cc1nc(N)sc1-c1ccnc(Nc2ccc(N3CCOCC3)cc2)n1 [CYC-116]
[2]
  Kd: > 30 µM (inactive)
[5]
  Kd: > 30 µM (inactive)
[7]
  Kd: > 30 µM (inactive)

## CCn1c(-c2nonc2N)nc2c(C#CC(C)(C)O)ncc(OC[C@H]3CCCNC3)c21 [GSK-690693]
[2]
  Kd: > 30 µM (inactive)
[7]
  Kd: > 30 µM (inactive)

## N[C@@H]1CCCN(c2c(/C=C3\SC(=O)NC3=O)cccc2-c2ccccc2)C1
[1]
  Kd: > 30 µM (inactive)
[2]
  Kd: > 30 µM (inactive)
[3]
  Kd: > 30 µM (inactive)
[4]
  Kd: > 30 µM (inactive)
[6]
  Kd: > 30 µM (inactive)
[7]
  Kd: > 30 µM (inactive)

## CN1CCN(c2ccc3nc(-c4c(N)c5c(F)cccc5[nH]c4=O)[nH]c3c2)CC1 [DOVITINIB]
[2]
  Kd: > 30 µM (inactive)
[7]
  Kd: > 30 µM (inactive)

## Nc1nc(N)c2nc(-c3cccc(O)c3)c(-c3cccc(O)c3)nc2n1 [TG100-115]
[2]
  Kd: > 30 µM (inactive)

Reference: ChEMBL document CHEMBL3991601, “The target landscape of clinical kinase drugs” (Science, 2017)
